From patent US20230372293A1, “SIRT1 INHIBITOR OR ANTAGONIST FOR USE IN PREVENTING AND/OR TREATING AN HPV INDUCED TUMOUR” (UNIVERSITA' DEGLI STUDI DEL PIEMONTE ORIENTALE "A. AVOGADRO", priority 2020, published 2023)
Where a SMILES comes first, the peptide text is derived from it. The star is where a group is joined. Cbz = O=C(OCc1ccccc1)*

Columns and labels:
NOKE6E7 cells = test: Annexin V-FITC/IP apoptosis assay, EX527 and doxorubicin; format: cell-based, human; settings: DX 1.5 μM 24 h, FIG. 6
Description: (§1) For this purpose, HeLa, CaSki, and NOKE6E7 cells were treated with EX527 (80 μM) for 24 h, or with an equal volume of DMSO solvent and after this period elapsed, they were treated with DX (1.5 μM for HeLa and NOKE6E7, 0.5 μM for CaSki) for a further 24 h. After this incubation period at 37° C., the cells were processed using the “Annexin V-FITC Apoptosis Detection Kit” (BioLegend), a technique that allows the presence of apoptotic and necrotic cells to be detected by cytofluorimetric analysis. This assay exploits the ability of the annexin protein to bind to phosphatidylserine (PS) and thus give fluorescence in green thanks to the conjugated fluorophore (FITC, fluorescein isothiocyanate). PS is a phospholipid normally found on the inner side of the cell membrane. During apoptosis processes, on the other hand, PS is exposed to the outside and allows annexin V to bind to it. […] Subsequently, 400 μl of Annexin V Binding Buffer were added to each tube and the cells were analysed on the FACSCalibur flow cytometer instrument (BD Biosciences) (excitation at 488 nm, emission 518 nm and 400 nm for FITC and IP respectively). The results were then analysed with the FlowJo programme.

CaSki cells [1] = test: MTT cell viability, EX527 and doxorubicin; format: cell-based; settings: DX 0.5 μM for 16, 40, 64 h
Description: (§2) The observations described above prompted an analysis of whether HPV-positive cells in which SIRT1 is inhibited with consequent reduced expression of E6 and E7 and restoration of p53, could be more sensitive to the treatment with genotoxic drugs, such as doxorubicin (DX, SIGMA ALDRICH). Firstly, cell viability was determined following treatment with EX527 in combination with doxorubicin against HeLa and CaSki cells, using the MTT (3-(4,5-dimethylthiazol-2-yl)-2,5-diphenyltetrazolium bromide; SIGMA-ALDRICH) colorimetric assay. To this purpose, the cells were exposed to a concentration of EX527 of 80 μM or equal volume of solvent, dimethyl sulfoxide (DMSO, SIGMA ALDRICH) for 24 h, after this period elapsed the cells were treated with DX (1.5 μM for HeLa, 0.5 μM for CaSki) for a further 16, 40, 64 h. Subsequently, the supernatant was removed, the well was washed with PBS1× (SIGMA-ALDRICH) and incubated for 2 hours at 37° C. and 5% of CO2 with DMEM medium supplemented with 500 μg/mL MTT solution. […] On these solubilised cells, absorbance was measured at a wavelength of 570 nm, using the Victor3 multiplate reader spectrophotometer (Perkin Elmer). The absorbance value obtained from the sample treated with the carrier alone at the maximum dose was considered equal to 100% viability and the other values were related thereto.

HeLa cells [2] = test: MTT cell viability, EX527 and doxorubicin; format: cell-based; settings: DX 1.5 μM for 16, 40, 64 h
Description: as §2

CaSki cells [3] = test: Annexin V-FITC/IP apoptosis assay, EX527 and doxorubicin; format: cell-based; settings: DX 0.5 μM 24 h, FIG. 6
Description: as §1

HeLa cells [4] = test: as above; format: cell-based; settings: DX 1.5 μM 24 h, FIG. 6
Description: as §1

CaSki cells [5] = test: Cell cycle analysis by propidium iodide flow cytometry, EX527 and doxorubicin; format: cell-based; settings: DX 0.5 μM 16 h
Description: (§3) For this purpose, HeLa and CaSki cells were treated with EX527 (80 μM) for 24 h, or with an equal volume of DMSO solvent and after this period elapsed, they were treated with DX (1.5 μM for HeLa, 0.5 μM for CaSki) for a further 16 h. After this incubation period at 37° C., the cells were labelled with propidium iodide (IP). Propidium iodide (3,8-diamino-5-diethylmethyl aminopropyl-6-phenylphenanthridine diiodide) (IP) is a synthetic dye characterised by low fluorescence (red-orange), capable of selectively binding to nucleic acids. It is known that the DNA content varies according to the phase of the cycle in which a cell is found. In particular, the G2 phase and mitosis (M) have twice as much DNA as the G1 phase, while during the DNA synthesis phase (S phase), the cell has an intermediate amount of DNA between the content in G1 and G2. Since the apoptotic cells, once resuspended in an appropriate buffer, release small DNA fragments, a reduction in IP fluorescence (related to the decrease in DNA content) can be observed in them. […] The cytofluorimetric analysis was performed on the FACSCalibur flow cytometer instrument (BD Biosciences) (excitation at 488 nm and emission 400 nm) and the results were analysed with the FlowJo programme.

HeLa cells [6] = test: as above; format: cell-based; settings: DX 1.5 μM 16 h
Description: as §3

CaSki cells [7] = test: Western blot of E6 and E7 with proteosome inhibitor MG132; format: cell-based; settings: DMSO then MG132 30 μM 8 h, vs DMSO control
Description: (§4) In order to determine whether the inhibition of E6 or E7 proteins was due to a transcriptional or post-translational modification, HeLa or CaSki cells, pre-treated for 48 h with EX527 at a concentration of 80 μM or equal volume of solvent, dimethyl sulfoxide (DMSO, SIGMA ALDRICH), were incubated with a proteosome inhibitor, MG132 (SIGMA ALDRICH) for 8 h at a concentration of 30 μM. After this incubation period at 37° C., the expression levels of viral E6 and E7 proteins were tested. The α-tubulin protein was included as an internal loading control. The cells were lysed with RIPA buffer (50 mM Tris-HCl pH 7.4; 150 mM NaCl; 1 mM EDTA; 1% Nonidet P-40; 0.1% SDS; 0.5% deoxycholate; protease inhibitors) for 30 min on ice. The samples were subsequently centrifuged for 10 minutes at 13000 rpm at 4° C. to remove cellular debris and then the proteins were quantified using the Bradford method (BIO-RAD). 30 μg of protein extract were taken, to which the appropriate amount of Laemmli sample buffer (50 mM Tris-HCl pH 6.8, 2% SDS, 10% glycerol, 2% β-mercaptoethanol) was added. The thus obtained solution was heated to 95° C. for 5 minutes and separated by polyacrylamide (12%)-SDS page gel electrophoresis. […]

HeLa cells [8] = test: as above; format: cell-based; settings: DMSO then MG132 30 μM 8 h, vs DMSO control
Description: as §4

SMILES | percentage of apoptotic cells, DX (NOKE6E7 cells) | mortality rate (MTT), DX alone (CaSki cells [1]) | mortality rate (MTT), DX alone (HeLa cells [2]) | percentage of apoptotic cells, DX (CaSki cells [3]) | percentage of apoptotic cells, DX (HeLa cells [4]) | cell death (sub-G0/G1 phase), DX (CaSki cells [5]) | cell death (sub-G0/G1 phase), DX (HeLa cells [6]) | expression of E6 and E7 after DMSO plus MG132 (CaSki cells [7]) | expression of E6 and E7 after DMSO plus MG132 (HeLa cells [8])
COc1cccc2c1C(=O)c1c(O)c3c(c(O)c1C2=O)C[C@@](O)(C(=O)CO)C[C@@H]3O[C@H]1C[C@H](N)[C@H](O)[C@H](C)O1 [DX, doxorubicin] | increase in the percentage of apoptotic cells | mortality rate increases more | mortality rate increases more | increase in the percentage of apoptotic cells | increase in the percentage of apoptotic cells | increase in cell death (sub-G0/G1 phase) | increase in cell death (sub-G0/G1 phase) |  | 
CC(C)C[C@@H](C=O)NC(=O)[C@H](CC(C)C)NC(=O)[C@H](CC(C)C)NC(=O)OCc1ccccc1 [MG132] (Cbz-Leu-Leu-Leu-aldehyde) |  |  |  |  |  |  |  | recovery in the expression of the tested proteins | recovery in the expression of the tested proteins
